Where “and” joins values, the source holds several entries; their conditions need not be identical. Equal entries are not always repeated. Each block holds one compound with its values, some of them ahead of it. Peptide text beside a SMILES is read from it.
Assay: Surface tension measurement, Kruss Processor Tensiometer-K12, Wilhelmy-method (plate method)
Type: physicochemical
Settings: for Surface tension, 25° C. Extrapolated Values at 2 mg/ml / Surface tension, 45° C. Extrapolated Values at 2 mg/ml: extrapolated to 2 mg/ml
Experimental: A “surface active” material is one having surface activity (measured, e.g., by surface tensiometry), as characterized by its ability to reduce the surface tension of the liquid in which it is dissolved. […] A peptide that is more surface active than another peptide is one which decreases the surface tension of water to a greater extent, when present in the liquid at the same concentration and measured under the same set of experimental conditions. The surface tension of several representative dipeptides, tripeptides, and proteins was measured at 25° C. and 45° C. to provide an indication of their relative surface activities. Surface tension measurements were carried out using a Kruss Processor Tensiometer-K12 with the Wilhelmy-method (Plate method). Solutions were prepared by dissolving either 0.05%, 0.2%, or 0.6% peptide/protein (by weight) along with an appropriate amount of raffinose by weight to provide final solutions having a 1.0% by weight solids content. Surface tension measurements at 25° C. and 45° C. were then obtained for the test solutions at three different time points (49 seconds, 100 seconds and 194 seconds).

Compound: OC[C@H]1O[C@H](OC[C@H]2O[C@H](O[C@]3(CO)O[C@H](CO)[C@@H](O)[C@@H]3O)[C@H](O)[C@@H](O)[C@@H]2O)[C@H](O)[C@@H](O)[C@H]1O [raffinose]
Surface activity (ability to lower the surface tension of water), in words: non-surface active | Surface tension (ST) (1% raffinose, 25° C., 49 s): 72 mN/m | Surface tension (ST) (1% raffinose, 25° C., 100 s): 72 mN/m | Surface tension (ST) (1% raffinose, 25° C., 194 s): 72 mN/m | Surface tension (ST) (1% raffinose, pH4, 25° C., 49 s): 71.4 mN/m and 71.1 mN/m | Surface tension (ST) (1% raffinose, pH4, 25° C., 100 s): 71.4 mN/m and 71.1 mN/m | Surface tension (ST) (1% raffinose, pH4, 25° C., 194 s): 71.4 mN/m and 71.1 mN/m | Surface tension (ST) (1% raffinose, pH4, 45° C., 49 s): 67.9 mN/m and 68.2 mN/m and 68 mN/m | Surface tension (ST) (1% raffinose, pH4, 45° C., 100 s): 68 mN/m and 68.2 mN/m | Surface tension (ST) (1% raffinose, pH4, 45° C., 194 s): 68 mN/m and 68.2 mN/m and 68.1 mN/m | Surface tension (ST) (1% raffinose, pH7, 25° C., 49 s): 71.1 mN/m | Surface tension (ST) (1% raffinose, pH7, 25° C., 100 s): 71.1 mN/m | Surface tension (ST) (1% raffinose, pH7, 25° C., 194 s): 71.1 mN/m | Surface tension (ST) (1% raffinose, pH7, 45° C., 49 s): 68.4 mN/m and 68.3 mN/m | Surface tension (ST) (1% raffinose, pH7, 45° C., 100 s): 68.4 mN/m and 68.3 mN/m | Surface tension (ST) (1% raffinose, pH7, 45° C., 194 s): 68.4 mN/m and 68.3 mN/m

Compound: Ala-Val-Leu [reference compound]
Surface tension, Actual MEAN (0.97 mg/ml, 25° C.): 67.5 mN/m | Surface tension, Actual MEAN (0.97 mg/ml, 45° C.): 60.3 mN/m | Surface tension, Actual MEAN (2.90 mg/ml, 25° C.): 62.8 mN/m | Surface tension, Actual MEAN (2.90 mg/ml, 45° C.): 57.7 mN/m | Surface tension, Actual MEAN (8.70 mg/ml, 25° C.): 55.7 mN/m | Surface tension, Actual MEAN (8.70 mg/ml, 45° C.): 53.8 mN/m | Surface tension, 25° C. Extrapolated Values at 2 mg/ml (25° C.): 65 mN/m | Surface tension, 45° C. Extrapolated Values at 2 mg/ml (45° C.): 58.9 mN/m

Compound: Leu-Tyr [reference compound]
Surface tension, Actual MEAN (0.71 mg/ml, 25° C.): 71.5 mN/m | Surface tension, Actual MEAN (0.71 mg/ml, 45° C.): 68.0 mN/m | Surface tension, Actual MEAN (2.13 mg/ml, 25° C.): 68.0 mN/m | Surface tension, Actual MEAN (2.13 mg/ml, 45° C.): 65.6 mN/m | Surface tension, Actual MEAN (6.40 mg/ml, 25° C.): 62.2 mN/m | Surface tension, Actual MEAN (6.40 mg/ml, 45° C.): 59.5 mN/m | Surface tension, 25° C. Extrapolated Values at 2 mg/ml (25° C.): 68.3 mN/m | Surface tension, 45° C. Extrapolated Values at 2 mg/ml (45° C.): 67.3 mN/m

Second part, the compound after the results:

Surface activity (ability to lower the surface tension of water), in words: highly surface active | Surface tension, Actual MEAN (0.68 mg/ml, 25° C.): 56.9 mN/m | Surface tension, Actual MEAN (0.68 mg/ml, 45° C.): 52.8 mN/m | Surface tension, Actual MEAN (2.03 mg/ml, 25° C.): 49.7 mN/m | Surface tension, Actual MEAN (2.03 mg/ml, 45° C.): 46.3 mN/m | Surface tension, Actual MEAN (6.10 mg/ml, 25° C.): 42.4 mN/m | Surface tension, Actual MEAN (6.10 mg/ml, 45° C.): 38.9 mN/m | Surface tension (ST) (0.05%, pH4, raffinose to 1% solids, 25° C., 49 s, listed as leu3): 59.9 mN/m and 60.4 mN/m | Surface tension (ST) (0.05%, pH4, raffinose to 1% solids, 25° C., 100 s, listed as leu3): 59.8 mN/m and 60.3 mN/m | Surface tension (ST) (0.05%, pH4, raffinose to 1% solids, 25° C., 194 s, listed as leu3): 59.7 mN/m and 60.2 mN/m | Surface tension (ST) (0.05%, pH4, raffinose to 1% solids, 45° C., 49 s, listed as leu3): 57.1 mN/m and 58.1 mN/m and 58 mN/m | Surface tension (ST) (0.05%, pH4, raffinose to 1% solids, 45° C., 100 s, listed as leu3): 57 mN/m and 57.9 mN/m and 57.8 mN/m | Surface tension (ST) (0.05%, pH4, raffinose to 1% solids, 45° C., 194 s, listed as leu3): 57 mN/m and 57.8 mN/m | Surface tension (ST) (0.05%, pH7, raffinose to 1% solids, 25° C., 49 s, listed as leu3): 60.1 mN/m and 60 mN/m and 60.2 mN/m | Surface tension (ST) (0.05%, pH7, raffinose to 1% solids, 25° C., 100 s, listed as leu3): 59.8 mN/m and 60 mN/m | Surface tension (ST) (0.05%, pH7, raffinose to 1% solids, 25° C., 194 s, listed as leu3): 59.7 mN/m and 59.8 mN/m | Surface tension (ST) (0.05%, pH7, raffinose to 1% solids, 45° C., 49 s, listed as leu3): 58.5 mN/m and 58.2 mN/m | Surface tension (ST) (0.05%, pH7, raffinose to 1% solids, 45° C., 100 s, listed as leu3): 58.4 mN/m and 58.2 mN/m and 58.1 mN/m | Surface tension (ST) (0.05%, pH7, raffinose to 1% solids, 45° C., 194 s, listed as leu3): 58.4 mN/m and 58.1 mN/m | Surface tension (ST) (0.2% (wt/vol) plus raffinose to 1% total solids, 25° C., 49 s): 51 mN/m | Surface tension (ST) (0.2% (wt/vol) plus raffinose to 1% total solids, 25° C., 100 s): 50.9 mN/m and 50.8 mN/m | Surface tension (ST) (0.2% (wt/vol) plus raffinose to 1% total solids, 25° C., 194 s): 50.9 mN/m and 50.7 mN/m | Surface tension (ST) (0.2%, pH4, raffinose to 1% solids, 25° C., 49 s): 51.4 mN/m | Surface tension (ST) (0.2%, pH4, raffinose to 1% solids, 25° C., 100 s, listed as leu3): 51.2 mN/m and 51.3 mN/m | Surface tension (ST) (0.2%, pH4, raffinose to 1% solids, 25° C., 194 s, listed as leu3): 51.1 mN/m and 51.2 mN/m | Surface tension (ST) (0.2%, pH4, raffinose to 1% solids, 45° C., 49 s, listed as leu3): 47.9 mN/m and 47.2 mN/m | Surface tension (ST) (0.2%, pH4, raffinose to 1% solids, 45° C., 100 s, listed as leu3): 47.5 mN/m and 47.2 mN/m and 47.3 mN/m | Surface tension (ST) (0.2%, pH4, raffinose to 1% solids, 45° C., 194 s, listed as leu3): 47.4 mN/m and 47.3 mN/m and 47.1 mN/m | Surface tension (ST) (0.2%, pH7, raffinose to 1% solids, 25° C., 49 s, listed as leu3): 51 mN/m and 50.9 mN/m and 50.7 mN/m | Surface tension (ST) (0.2%, pH7, raffinose to 1% solids, 25° C., 100 s, listed as leu3): 50.8 mN/m and 50.7 mN/m and 50.5 mN/m | Surface tension (ST) (0.2%, pH7, raffinose to 1% solids, 25° C., 194 s, listed as leu3): 50.7 mN/m and 50.6 mN/m and 50.4 mN/m | Surface tension (ST) (0.2%, pH7, raffinose to 1% solids, 45° C., 49 s, listed as leu3): 58.5 mN/m and 58.2 mN/m | Surface tension (ST) (0.2%, pH7, raffinose to 1% solids, 45° C., 100 s, listed as leu3): 58.4 mN/m and 58.2 mN/m and 58.1 mN/m | Surface tension (ST) (0.2%, pH7, raffinose to 1% solids, 45° C., 194 s, listed as leu3): 58.4 mN/m and 58.1 mN/m | Surface tension (ST) (0.6%, pH4, raffinose to 1% solids, 25° C., 49 s, listed as leu3): 44.2 mN/m and 44.3 mN/m | Surface tension (ST) (0.6%, pH4, raffinose to 1% solids, 25° C., 100 s, listed as leu3): 44.1 mN/m and 44.2 mN/m | Surface tension (ST) (0.6%, pH4, raffinose to 1% solids, 25° C., 194 s, listed as leu3): 44 mN/m and 44.2 mN/m and 44.1 mN/m | Surface tension (ST) (0.6%, pH4, raffinose to 1% solids, 45° C., 49 s, listed as leu3): 40.9 mN/m and 41.1 mN/m | Surface tension (ST) (0.6%, pH4, raffinose to 1% solids, 45° C., 100 s, listed as leu3): 40.9 mN/m and 41 mN/m | Surface tension (ST) (0.6%, pH4, raffinose to 1% solids, 45° C., 194 s, listed as leu3): 40.8 mN/m and 40.9 mN/m | Surface tension (ST) (0.6%, pH7, raffinose to 1% solids, 25° C., 49 s, listed as leu3): 43.7 mN/m and 43.8 mN/m | Surface tension (ST) (0.6%, pH7, raffinose to 1% solids, 25° C., 100 s): 43.7 mN/m | Surface tension (ST) (0.6%, pH7, raffinose to 1% solids, 25° C., 194 s, listed as leu3): 43.6 mN/m and 43.7 mN/m | Surface tension of water lowered to (concentration of 0.68 mg/ml): about 57 mN/m | Surface tension of water lowered to (concentration of 1.20 mg/ml, water about 72 mN/m): 42 mN/m | Surface tension, 25° C. Extrapolated Values at 2 mg/ml (25° C.): 49.7 mN/m | Surface tension, 45° C. Extrapolated Values at 2 mg/ml (45° C.): 46.3 mN/m
Compound: CC(C)CC(N)C(=O)NC(CC(C)C)C(=O)NC(CC(C)C)C(=O)O (stereo not drawn) [tri-leucine, trileucine] (H-Leu-Leu-Leu-OH; configuration not given here)

Surface tension, Actual MEAN (0.98 mg/ml, 25° C.): 69.2 mN/m | Surface tension, Actual MEAN (0.98 mg/ml, 45° C.): 64.2 mN/m | Surface tension, Actual MEAN (2.93 mg/ml, 25° C.): 65 mN/m | Surface tension, Actual MEAN (2.93 mg/ml, 45° C.): 60.4 mN/m | Surface tension, Actual MEAN (8.80 mg/ml, 25° C.): 59.1 mN/m | Surface tension, Actual MEAN (8.80 mg/ml, 45° C.): 55.7 mN/m | Surface tension, 25° C. Extrapolated Values at 2 mg/ml (25° C.): 67.2 mN/m | Surface tension, 45° C. Extrapolated Values at 2 mg/ml (45° C.): 62.3 mN/m
Compound: Leu-Val [reference compound]

Surface tension, Actual MEAN (1.11 mg/ml, 25° C.): 71.6 mN/m | Surface tension, Actual MEAN (1.11 mg/ml, 45° C.): 66.3 mN/m | Surface tension, Actual MEAN (3.33 mg/ml, 25° C.): 70.1 mN/m | Surface tension, Actual MEAN (3.33 mg/ml, 45° C.): 65.3 mN/m | Surface tension, Actual MEAN (10.00 mg/ml, 25° C.): 66.1 mN/m | Surface tension, Actual MEAN (10.00 mg/ml, 45° C.): 61.9 mN/m | Surface tension, 25° C. Extrapolated Values at 2 mg/ml (25° C.): 70.3 mN/m | Surface tension, 45° C. Extrapolated Values at 2 mg/ml (45° C.): 65.8 mN/m
Compound: Val-Ile [reference compound]

Surface tension, Actual MEAN (0.87 mg/ml, 25° C.): 70 mN/m | Surface tension, Actual MEAN (0.87 mg/ml, 45° C.): 65.5 mN/m | Surface tension, Actual MEAN (2.60 mg/ml, 25° C.): 69.5 mN/m | Surface tension, Actual MEAN (2.60 mg/ml, 45° C.): 65.0 mN/m | Surface tension, Actual MEAN (7.80 mg/ml, 25° C.): 68 mN/m | Surface tension, Actual MEAN (7.80 mg/ml, 45° C.): 63.5 mN/m | Surface tension, 25° C. Extrapolated Values at 2 mg/ml (25° C.): 69.8 mN/m | Surface tension, 45° C. Extrapolated Values at 2 mg/ml (45° C.): 65.3 mN/m
Compound: Val-Leu [reference compound]

Reference: patent publication US7482024B2, “Compositions comprising an active agent” (Nektar Therapeutics, priority 1999, dated 2009)
